Results from paper PMC11375794, “Discovery of new Hsp90–Cdc37 protein–protein interaction inhibitors: in silico screening and optimization of anticancer activity” (RSC Advances, 2024).

Legend:
[1] = test system: MCF-7 breast cancer cell line; assay: MTS cell viability (antiproliferative) assay in MCF-7; type: cell-based; settings: Homo sapiens; for IC50: MTS assay, 72 hours, mean ± SD
Procedure: (§1) Hormone-positive breast cancer cell line MCF-7 (ATCC-HTB-22; ATCC) was grown in Dulbecco's Modified Eagle's Medium (DMEM), while Ewing sarcoma cell line SK-N-MC (a kind gift from Beat Schäfer) and THP-1 (ATCC-TIB-202; ATCC) cells were grown in Roswell Park Memorial Institute (RPMI) 1640. The medium was supplemented with 10% heat-inactivated fetal bovine serum (Gibco, Thermo Fisher Scientific, Waltham, MA, USA), 100 U per mL penicillin, 100 μg per mL streptomycin, and 2 mM L-glutamine (all from Sigma-Aldrich, St. Louis, MO, USA). All cell lines were incubated at 37 °C in a 5% CO2 atmosphere.
(§2) The antiproliferative activity of the compounds was evaluated against MCF-7 (ATCC-HTB-22; ATCC), SK-N-MC (a kind gift from Beat Schäfer) and THP-1 (ATCC-TIB-202; ATCC) cancer cell lines using the MTS assay (Promega, Madison, WI, USA). Cells were seeded in 96-well plates at a density of 2 × 10^4 cells per mL in 100 μL of growth medium for THP-1 and were treated with compounds and controls directly, while 3 × 10^3 cells per mL for MCF-7 and SK-N-MC were seeded in 100 μL of growth medium and allowed to adhere overnight following the treatment. In all cases the cells were treated with respective newly prepared compounds, positive controls (17-DMAG for MCF-7 and SK-N-MC; PU-H71 for THP-1) and a vehicle control (0.5% DMSO). The incubation time after treatment was 72 hours, then CellTiter96® Aqueous One Solution Reagent (Promega, Madison, WI, USA) was added to each well. Following a 3 hours incubation, absorbance was measured at 492 nm using BioTek's Synergy™ 4 Hybrid Microplate Reader (Winooski, VT, USA). The measurements were performed in two biological repetitions and each time the experiment was performed in a triplicate. The IC50 values, representing the concentration of inhibitor required for half-maximal inhibition, are the average of three independent experiments and were calculated using GraphPad Prism 9.5.0 software (San Diego, CA, USA).

[2] = test system: Ewing sarcoma cell line SK-N-MC; assay: MTS cell viability (antiproliferative) assay in SK-N-MC; type: cell-based; settings: Homo sapiens, SK-N-MC, 72 hours, mean ± SD
Procedure: as §1, §2

leukemia cell line THP-1 = assay: MTS cell viability (antiproliferative) assay in THP-1; type: cell-based; settings: Homo sapiens, THP-1, 72 hours, mean ± SD
Procedure: as §1, §2

full-length Hsp90β = molecular target: T1, full-length Hsp90β (Homo sapiens, UniProt P08238); assay: Microscale thermophoresis (MST) binding to Hsp90β
T1 construct: For the protein expression of full-length Hsp90β, we received plasmids as a kind gift; made in house; host or cells: Escherichia coli strain Rosetta
Procedure: For the protein expression of full-length Hsp90β, we received plasmids as a kind gift from Dr Asta Zubriené at the Institute of Biotechnology, Vilnius University, Lithuania. Hsp90β, tagged with N-terminal 6×His-tag, was expressed in Escherichia coli strain Rosetta. The cells were cultured in LB media supplemented with kanamycin (50 μg mL^−1) and chloramphenicol (34 μg mL^−1) at 37 °C, and protein expression was initiated with 0.5 mM isopropyl β-D-1-thiogalactopyranoside (IPTG) when the OD600 reached 0.8. Following induction, the cells were incubated for 16 hours at 18 °C before being harvested by centrifugation. The cells were resuspended in a lysis buffer containing 40 mM potassium phosphate pH 8.0, 400 mM KCl, 10 mM imidazole, and protease inhibitors (Sigma), and then lysed by sonication. After centrifugation, the proteins were initially purified using a Ni^2+-affinity HisTrap column (GE Healthcare). Impurities were washed away with lysis buffer containing 20–40 mM imidazole, and Hsp90β was subsequently eluted with lysis buffer containing 300 mM imidazole. The purification process continued with size exclusion chromatography (SEC) using a Superdex-200 (16/600) column (GE Healthcare) and a running buffer of 50 mM Tris pH 7.5 at room temperature, 300 mM KCl. The purity of the fractions was confirmed by SDS-PAGE, and they were then concentrated. For the NMR experiments, Hsp90β was dialyzed against NMR buffer (50 mM potassium phosphate pD 7.5, 100 mM KCl, 2 mM DTT (98%, D10) in D2O) and subsequently frozen in liquid nitrogen.
(§3) The full-length Hsp90β was labeled using the Monolith His-Tag Labeling Kit RED-tris-NTA following the manufacturer's instructions (NanoTemper Technologies GmbH, Munich, Germany). The proteins were first diluted to a concentration of 8 nM in assay buffer (50 mM Tris–HCl, pH 7.4, containing 150 mM NaCl, 5% ethanol, and 10 mM MgCl2). To determine the Kd values, the proteins were mixed with the test compounds in a 1 : 1 ratio as stated in the manufacturers protocol. The final concentration of Hsp90β was 4 nM, with compounds added in the following ranges: 1000 μM to 5.86 μM for 8c; 312.5 μM to 0.15 μM for 13g and 125 μM to 3.91 μM for 1. Two independent Kd determinations were performed for compounds 8c and 13g. […] Next, Cdc37 (AR09008PUN, OriGene Technologies, Inc., Rockville, MD, USA) was acquired for the purpose of PPI inhibition evaluation between full-length Hsp90β and Cdc37. […] In all experiments the compounds were incubated with the proteins for 15 minutes in the dark at room temperature. The mixtures were then loaded into Monolith NT.115 Premium Capillaries (NanoTemper Technologies GmbH, Munich, Germany). Thermophoresis was induced at 1475 ± 15 nm and measured using a Monolith NT.115 pico instrument (NanoTemper Technologies GmbH, Munich, Germany). Measurements were conducted at ambient temperature (24–25 °C), with excitation power set to 20% and MST power set to 40%, and a laser on time of 5 seconds. To calculate the Kd values, the average fluorescence responses for each concentration were plotted against the logarithm of compound concentrate on using GraphPad Prism software (GraphPad Software, Inc., La Jolla, CA).

[3] = Solubility as observed in MST; type: physicochemical; settings: MST assay buffer
Procedure: as §3, with “The mixtures were then loaded into Monolith NT.115 Premium Capillaries (NanoTemper Technologies GmbH, Munich, Germany).” left out, “Measurements were conducted at ambient temperature (24–25 °C), with excitation power set to 20% and MST power set to 40%, and a laser on time of 5 seconds.” left out

[4] = test system: Hsp90 client protein levels (Cdk4, Akt, c-Raf, ERα, IGF1R) and Hsp70, Hsp90 in MCF-7 cells; assay: Western blot of Hsp90 client proteins and heat shock proteins; type: cell-based; settings: MCF-7, 20 μM, 24 hours
Procedure: MCF-7 cells were treated with compounds 8c (20 μM and 50 μM), 13g (20 μM and 50 μM) and DDO-5936 (20 μM) or 0.5% DMSO as a negative control. The cells were incubated with the compounds or negative control for 24 hours. After incubation, the cells were rinsed with PBS (Gibco, Thermo Fisher Scientific, Waltham, MA, USA) and lysed using RIPA buffer containing 50 mM Tris–HCl pH 7.4, 150 mM NaCl, 1% NP-40, 0.5% sodium deoxycholate, and 1 mM EDTA. The RIPA buffer was further supplemented with Halt™ Protease Inhibitor Cocktail and Halt™ Phosphatase Inhibitor Cocktail (both from Thermo Fisher Scientific, Waltham, MA, USA) at a 1 : 100 dilution. The lysates were then frozen for at least 24 hours. Upon thawing, the lysates were sonicated and centrifuged at 15 000 rpm for 20 minutes at 4 °C. Only the supernatants were collected, and protein concentration was measured using the DC protein assay (Bio-Rad, Hercules, California, USA). Proteins (20 μg) were separated by SDS-PAGE on a 10% acrylamide/bisacrylamide gel, running at 80 V for 15 minutes followed by 130 V for 60 minutes. The separated proteins were then transferred onto a nitrocellulose membrane using the iBlot 2 Dry Blotting System (Thermo Fisher Scientific, Waltham, MA, USA). The membranes were blocked with 5% BSA for 1 hour at room temperature to prevent nonspecific binding. Primary antibodies were then added, and the membranes were incubated overnight at 4 °C. The primary antibodies (Cell Signaling, Danvers, MA, USA) used included anti-β-ActinMouse mAb (1 : 5000), anti-Hsp90 Rabbit mAb (1 : 1000), anti-Hsp70 Mouse mAb (1 : 1000), anti-IGF1R Rabbit (1 : 1000), anti-CDK4 Rabbit (1 : 1000), anti-ERα Mouse mAb (1 : 1000), anti-Akt Rabbit mAb (1 : 1000), and anti-c-Raf Rabbit mAb (1 : 1000). Secondary antibodies included anti-rabbit IgG, HRP-linked antibody (1 : 10 000), and anti-mouse IgG, HRP-linked antibody (1 : 10 000), which were incubated with the membranes for 1 hour at room temperature. Following washes, SuperSignal™ West Femto Maximum Sensitivity Substrate (Thermo Fisher Scientific, Waltham, MA, USA) was applied. Visualization of the blots was performed using the UVITEC Cambridge Imaging System (UVITEC, Cambridge, UK), and densitometric analysis of the western blot bands was conducted using NineAlliance software. Relative protein densities were calculated in relation to β-actin, used as a loading control.

wild-type Hsp90 = molecular target: wild-type Hsp90; set-up: method as in PMID 31555737; settings: cited from earlier work
Asp47Ala mutant of Hsp90 = molecular target: Asp47Ala mutant of Hsp90; set-up: method as in PMID 31555737; settings: cited from earlier work

T1 sequence (P08238 whole entry): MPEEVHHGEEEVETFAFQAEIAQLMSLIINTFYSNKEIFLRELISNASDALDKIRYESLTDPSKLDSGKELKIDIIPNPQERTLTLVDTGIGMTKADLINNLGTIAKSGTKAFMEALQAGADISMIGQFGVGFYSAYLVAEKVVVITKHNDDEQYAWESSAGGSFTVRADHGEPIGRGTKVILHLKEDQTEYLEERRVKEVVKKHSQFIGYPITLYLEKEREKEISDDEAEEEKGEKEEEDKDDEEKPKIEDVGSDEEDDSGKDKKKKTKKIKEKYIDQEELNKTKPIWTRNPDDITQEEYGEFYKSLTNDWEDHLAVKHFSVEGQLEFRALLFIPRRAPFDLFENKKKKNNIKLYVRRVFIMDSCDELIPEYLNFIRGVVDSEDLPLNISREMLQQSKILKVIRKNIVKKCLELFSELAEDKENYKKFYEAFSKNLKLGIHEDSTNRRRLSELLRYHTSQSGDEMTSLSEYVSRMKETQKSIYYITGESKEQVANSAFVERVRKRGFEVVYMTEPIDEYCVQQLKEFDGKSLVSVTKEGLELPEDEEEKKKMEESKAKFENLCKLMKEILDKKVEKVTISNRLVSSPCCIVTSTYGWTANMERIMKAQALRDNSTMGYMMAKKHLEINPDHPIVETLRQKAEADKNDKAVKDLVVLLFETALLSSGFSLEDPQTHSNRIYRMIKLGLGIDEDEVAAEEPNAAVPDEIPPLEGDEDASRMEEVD

| IC50 ([1]; MCF7, 72 h) [µM] | concentrations at which an increase in binding could be detected (full-length Hsp90β) | highest concentration without compound-induced protein aggregation (full-length Hsp90β) [µM] | binding to Hsp90β (qualitative) (full-length Hsp90β; 125 μM to 3.91 μM) | solubility [3] | Structure (SMILES) | IC50 [2] [µM] | IC50 (leukemia cell line THP-1) [µM] | inhibition at 50 µM ([1]; MCF7, MCF-7, at 50 μM, read-out: growth inhibition) [%] | IC50 ([1]; MCF7) [µM] | ERα level [4] | Kd (wild-type Hsp90) [µM] | Kd (Asp47Ala mutant of Hsp90) [µM] |
| --- | --- | --- | --- | --- | --- | --- | --- | --- | --- | --- | --- | --- |
| 29.5 ± 5.4 | above 39 μM | 125 | confirmed qualitatively | poor | Cc1nc(Nc2nc(C(=O)N(C)CCOc3ccccc3)cs2)cc(C2CCCN(CC#N)C2)n1 (centres unmarked) [Compound 1] | 25 ± 0.4 | > 50 | – | – | – | – | – |
| – | – | – | – | – | Cc1cc(C)c(S(=O)(=O)N(CC(=O)O)c2ccc(Nc3ccnc(N4CCCC4)n3)cc2)c(C)c1 [DDO-5936, reference compound] | > 50 | > 50 | 17 | > 50 | downregulated | 3.86 | > 100 |
